Earlier results in patent US20180193334A1, “PHARMACEUTICAL COMPOSITION OF VORTIOXETINE OR SALT THEREOF, AND PREPARATION METHOD THEREFOR” (Changzhou Fangnan Pharmaceuticals, Ltd., priority 2015, published 2018).
In brackets after ≈: the same amount, converted by molar mass.

Compound	solubility in water [µg/mL]
Br.Cc1ccc(Sc2ccccc2N2CCNCC2)c(C)c1 [1-[2-(2,4-methylphenylthio)phenyl] piperazine hydrobromide]	1200
Cc1ccc(Sc2ccccc2N2CCNCC2)c(C)c1 [vortioxetine free base]	100 (≈ 335 µM)
